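How tested: cells in 96-well plates exposed to compound for 48 hours at five concentrations. At the TGI there is no net growth.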
How the values were obtained:
Experiment in all cases: NCI anticancer screen, dose series, 48 h
SF-268 CNS = tested on: SF-268 CNS
MOLT-4 leukemia = tested on: MOLT-4 leukemia
NCI-H226 lung = tested on: NCI-H226 lung
TK-10 renal = tested on: TK-10 renal
COLO 205 colon = tested on: COLO 205 colon
HL-60(TB) leukemia = tested on: HL-60(TB) leukemia
SK-OV-3 ovarian = tested on: SK-OV-3 ovarian
SK-MEL-2 melanoma = tested on: SK-MEL-2 melanoma
LOX IMVI melanoma = tested on: LOX IMVI melanoma
NCI/ADR-RES ovarian = tested on: NCI/ADR-RES ovarian
OVCAR-5 ovarian = tested on: OVCAR-5 ovarian
CAKI-1 renal = tested on: CAKI-1 renal
SNB-75 CNS = tested on: SNB-75 CNS
HS 578T breast = tested on: HS 578T breast
U251 CNS = tested on: U251 CNS
RXF 393 renal = tested on: RXF 393 renal
HT29 colon = tested on: HT29 colon
SF-539 CNS = tested on: SF-539 CNS
SW-620 colon = tested on: SW-620 colon
OVCAR-4 ovarian = tested on: OVCAR-4 ovarian

SMILES	TGI (SF-268 CNS) [µM]	TGI (MOLT-4 leukemia) [µM]	TGI (NCI-H226 lung) [µM]	TGI (TK-10 renal) [µM]	TGI (COLO 205 colon) [µM]	TGI (HL-60(TB) leukemia) [µM]	TGI (SK-OV-3 ovarian) [µM]	TGI (SK-MEL-2 melanoma) [µM]	TGI (LOX IMVI melanoma) [µM]	TGI (NCI/ADR-RES ovarian) [µM]	TGI (OVCAR-5 ovarian) [µM]	TGI (CAKI-1 renal) [µM]	TGI (SNB-75 CNS) [µM]	TGI (HS 578T breast) [µM]	TGI (U251 CNS) [µM]	TGI (RXF 393 renal) [µM]	TGI (HT29 colon) [µM]	TGI (SF-539 CNS) [µM]	TGI (SW-620 colon) [µM]	TGI (OVCAR-4 ovarian) [µM]
C=C(CN1CC2C[C@](C(=O)OC)(c3cc4ccccc4[nH]3)C1C(OC)C2OC)S(=O)(=O)c1ccccc1 (stereo not given in full)	15.8	2.83	18.8	17.4	6.14	5.12	13.8	12.3	3.54	20.7	13.1	11.7	11.6	10.9	8.52	10.1	9.44	16.9	22.8	12.5
COc1ccccc1/C=C1\NC(=S)N(/C=C2\C(=O)Oc3ccccc3C2=O)C1=O	> 100	72.6	> 100	> 100	> 100	> 100	> 100	> 100	> 100	> 100	> 100	> 100	> 100	> 100	> 100	> 100	> 100	96.7	> 100	> 100
CCOC(=O)C(C(=S)SC)c1nn2c(=O)cc(C)nc2s1 (stereo not given)	34	44.2	34.6	61.9	47.5	35.3	47.4	41.5	29.4	54.8	38.7	37.3	41.3	44.9	30.6	39.8	36.9	36	37.2	58.4
COC(=O)[C@H](CC(C)C)Nc1c(O)c2c(c(O)c1Cl)C(=O)C=CC2=O	> 10	> 10	> 10	> 10	> 10	> 10	> 10	> 10	5.74	> 10	> 10	> 10	> 10	> 10	> 10	> 10	9.41	> 10	> 10	> 10
COc1cccc(N(CN2C(=O)CCC2C(=O)O)C(C)=O)c1 (stereo not given)	> 100	> 100	> 100	> 100	> 100	> 100	> 100	> 100	> 100	> 100	> 100	> 100	> 100	> 100	> 100	> 100	> 100	> 100	> 100	> 100
CCOC(=O)C(NC(=O)c1ccccc1)(Nc1ccc(Cl)cc1C(F)(F)F)C(F)(F)F (stereo not given)	> 100	> 22.2	> 100	> 100	19.2	5.04	> 100	> 45.1	> 100	10.6	> 100	> 55.7	15.1	> 100	19	24.7	6.53	> 88.6	17.2	> 100
CCOC(=O)c1c2c(c(O)c3ccccc3c(O)n(Cc3ccccc3)c1C)C(=O)C=CC2=O	> 100	> 100	> 100	> 100	> 100	> 100	> 100	> 100	> 100	> 100	> 100	> 100	> 100	> 100	> 100	75.9	> 100	> 100	> 100	> 100
COc1ccc2nc3ccc(OC)cc3c(SCc3ccccc3)c2c1	> 100	> 83.2	> 100	> 100	> 100	> 100	> 100	> 100	> 100	> 100	> 100	> 100	> 100	> 100	> 100	> 100	> 100	> 100	> 100	> 100
COc1ccc(/C=C2\CCC/C(=C\c3ccc(O)c(CN4CCCCC4)c3)C2=O)cc1	13.1	40.7	45.8	52.1	46.9	> 100	40.7	43	26.1	32.8	61.3	> 74.6	> 71.8	> 100	33.9	41	19.9	16.1	28.8	> 79.5

Source: PubChem BioAssay (NCI)
